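Step 1: Grow cells in 96-well plates. Step 2: Expose to compound for 48 hours at 5 concentrations. Step 3: Interpolate endpoints linearly; if unreached, use highest concentration. Here, GI50 denotes the concentration required for 50% inhibition of growth.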 Activity calls are given as the source filed them. No stated cut-off is given here; in the data, active = GI50 up to about 1.1 µM and inactive = higher.
Columns and labels:
Assay in all cases: NCI anticancer screen, dose series, 48 h
NCI-H226 = system: NCI-H226
M19-MEL = system: M19-MEL
RXF 393 = system: RXF 393
OVCAR-3 = system: OVCAR-3
NCI-H23 = system: NCI-H23
UACC-257 = system: UACC-257
HL-60 = system: HL-60
HCT-15 = system: HCT-15
SK-MEL-28 = system: SK-MEL-28
HT-29 = system: HT-29
U-251 = system: U-251
SNB-19 = system: SNB-19
Malme-3M = system: Malme-3M
NCI-H522 = system: NCI-H522
IGROV-1 = system: IGROV-1
LXFL 529 = system: LXFL 529
COLO 205 = system: COLO 205
HOP-92 = system: HOP-92
LOX IMVI = system: LOX IMVI
CAKI-1 = system: CAKI-1
DMS-273 = system: DMS-273
M14 = system: M14
SW-620 = system: SW-620
ACHN = system: ACHN
OVCAR-5 = system: OVCAR-5
OVCAR-4 = system: OVCAR-4
RPMI-8226 = system: RPMI-8226
SK-MEL-5 = system: SK-MEL-5
SF-295 = system: SF-295
NCI-H460 = system: NCI-H460
TK-10 = system: TK-10
KM-20L2 = system: KM-20L2
SK-OV-3 = system: SK-OV-3
K562 = system: K562
UACC-62 = system: UACC-62
SK-MEL-2 = system: SK-MEL-2
A549 = system: A549
SNB-78 = system: SNB-78
SF-268 = system: SF-268
MOLT-4 = system: MOLT-4
UO-31 = system: UO-31
786-0 = system: 786-0
SN12C = system: SN12C
SF-539 = system: SF-539
DMS-114 = system: DMS-114
HOP-62 = system: HOP-62
SNB-75 = system: SNB-75
DLD-1 = system: DLD-1
HCT-116 = system: HCT-116
HOP-18 = system: HOP-18
CCRF-CEM = system: CCRF-CEM
OVCAR-8 = system: OVCAR-8
KM12 = system: KM12
SR = system: SR
HCC 2998 = system: HCC 2998
A498 = system: A498
EKVX = system: EKVX

## O=C(c1ccc(Cl)cc1)N(C(=S)N1CCN(c2ccccc2)CC1)C1CCCCC1
NCI-H226
  GI50: 1.03 µM (active)
M19-MEL
  GI50: > 100 µM (inactive)
RXF 393
  GI50: > 100 µM (inactive)
OVCAR-3
  GI50: > 100 µM (inactive)
NCI-H23
  GI50: > 100 µM (inactive)
UACC-257
  GI50: 91.2 µM (inactive)
HL-60
  GI50: 94.6 µM (inactive)
HCT-15
  GI50: > 100 µM
SK-MEL-28
  GI50: > 100 µM (inactive)
HT-29
  GI50: > 100 µM (inactive)
U-251
  GI50: > 100 µM (inactive)
SNB-19
  GI50: > 100 µM (inactive)
Malme-3M
  GI50: > 100 µM (inactive)
NCI-H522
  GI50: > 100 µM (inactive)
IGROV-1
  GI50: > 100 µM (inactive)
LXFL 529
  GI50: > 100 µM (inactive)
COLO 205
  GI50: > 100 µM (inactive)
HOP-92
  GI50: > 100 µM (inactive)
LOX IMVI
  GI50: 79.4 µM (inactive)
CAKI-1
  GI50: > 100 µM (inactive)
DMS-273
  GI50: 46.9 µM (inactive)
M14
  GI50: > 100 µM (inactive)
SW-620
  GI50: > 100 µM (inactive)
ACHN
  GI50: > 100 µM (inactive)
OVCAR-5
  GI50: > 100 µM (inactive)
OVCAR-4
  GI50: > 100 µM (inactive)
RPMI-8226
  GI50: 63.5 µM (inactive)
SK-MEL-5
  GI50: > 100 µM (inactive)
SF-295
  GI50: > 100 µM (inactive)
NCI-H460
  GI50: > 100 µM (inactive)
TK-10
  GI50: > 100 µM (inactive)
KM-20L2
  GI50: > 100 µM (inactive)
SK-OV-3
  GI50: > 100 µM (inactive)
K562
  GI50: 58.2 µM (inactive)
UACC-62
  GI50: > 100 µM (inactive)
SK-MEL-2
  GI50: > 100 µM (inactive)
A549
  GI50: > 100 µM (inactive)
SNB-78
  GI50: > 100 µM (inactive)
SF-268
  GI50: > 100 µM (inactive)
MOLT-4
  GI50: 54.2 µM (inactive)
UO-31
  GI50: > 100 µM (inactive)
786-0
  GI50: > 100 µM (inactive)
SN12C
  GI50: > 100 µM (inactive)
SF-539
  GI50: > 100 µM (inactive)
DMS-114
  GI50: 70 µM (inactive)
HOP-62
  GI50: > 100 µM (inactive)
SNB-75
  GI50: 85.3 µM (inactive)
DLD-1
  GI50: > 100 µM (inactive)
HCT-116
  GI50: 45.7 µM (inactive)
HOP-18
  GI50: > 100 µM (inactive)
CCRF-CEM
  GI50: > 100 µM (inactive)
OVCAR-8
  GI50: > 100 µM (inactive)
KM12
  GI50: > 100 µM (inactive)
SR
  GI50: 67.6 µM (inactive)

## Cc1c2cc[n+](C)cc2c(C)c2c1[nH]c1ccc(OCC(F)(F)F)cc12
NCI-H226
  GI50: 0.375 µM (active)
M19-MEL
  GI50: 2.09 µM (inactive)
OVCAR-3
  GI50: 4.72 µM (inactive)
NCI-H23
  GI50: 1.49 µM (inactive)
HCC 2998
  GI50: 7.14 µM (inactive)
HT-29
  GI50: 4.11 µM (inactive)
U-251
  GI50: 0.275 µM (active)
SNB-19
  GI50: 0.718 µM (active)
Malme-3M
  GI50: 1.77 µM (inactive)
NCI-H522
  GI50: 1.57 µM (inactive)
IGROV-1
  GI50: 2.77 µM (inactive)
LXFL 529
  GI50: 0.447 µM (active)
COLO 205
  GI50: 0.94 µM (active)
HOP-92
  GI50: 2.08 µM (inactive)
DMS-273
  GI50: 1.49 µM (inactive)
SW-620
  GI50: 3.01 µM (inactive)
OVCAR-4
  GI50: 4.61 µM (inactive)
SK-MEL-5
  GI50: 1.73 µM (inactive)
SF-295
  GI50: 0.275 µM (active)
NCI-H460
  GI50: 2.25 µM (inactive)
KM-20L2
  GI50: 3.98 µM (inactive)
SK-OV-3
  GI50: 3.08 µM (inactive)
K562
  GI50: 3.83 µM (inactive)
UACC-62
  GI50: 12.2 µM (inactive)
SK-MEL-2
  GI50: 4.62 µM (inactive)
A549
  GI50: 2.12 µM (inactive)
SF-268
  GI50: 0.286 µM (active)
MOLT-4
  GI50: 5.12 µM (inactive)
786-0
  GI50: 0.38 µM (active)
SN12C
  GI50: 0.164 µM (active)
SF-539
  GI50: 1.07 µM (active)
DMS-114
  GI50: 1.47 µM (inactive)
HOP-62
  GI50: 0.771 µM (active)
DLD-1
  GI50: 1.36 µM (inactive)
HCT-116
  GI50: 3.37 µM (inactive)
HOP-18
  GI50: 3.72 µM (inactive)
CCRF-CEM
  GI50: 7.31 µM (inactive)
OVCAR-8
  GI50: 0.467 µM (active)
KM12
  GI50: 3.41 µM (inactive)
SR
  GI50: 3.37 µM (inactive)

## COc1ccc(C(=C(C#N)C#N)c2ccc(OC)cc2)cc1
NCI-H226
  GI50: > 100 µM (inactive)
RXF 393
  GI50: > 100 µM (inactive)
OVCAR-3
  GI50: > 100 µM (inactive)
NCI-H23
  GI50: > 100 µM (inactive)
UACC-257
  GI50: > 100 µM (inactive)
HL-60
  GI50: > 100 µM (inactive)
HCT-15
  GI50: > 100 µM
HCC 2998
  GI50: > 100 µM (inactive)
SK-MEL-28
  GI50: > 100 µM (inactive)
HT-29
  GI50: > 100 µM (inactive)
U-251
  GI50: > 100 µM (inactive)
SNB-19
  GI50: > 100 µM (inactive)
NCI-H522
  GI50: 30 µM (inactive)
IGROV-1
  GI50: > 100 µM (inactive)
A498
  GI50: > 100 µM (inactive)
LXFL 529
  GI50: > 100 µM (inactive)
COLO 205
  GI50: > 100 µM (inactive)
LOX IMVI
  GI50: > 100 µM (inactive)
CAKI-1
  GI50: > 100 µM (inactive)
DMS-273
  GI50: > 100 µM (inactive)
M14
  GI50: > 100 µM (inactive)
SW-620
  GI50: > 100 µM (inactive)
ACHN
  GI50: > 100 µM (inactive)
OVCAR-5
  GI50: > 100 µM (inactive)
OVCAR-4
  GI50: > 100 µM (inactive)
RPMI-8226
  GI50: > 100 µM (inactive)
SF-295
  GI50: > 100 µM (inactive)
NCI-H460
  GI50: > 100 µM (inactive)
TK-10
  GI50: > 100 µM (inactive)
KM-20L2
  GI50: > 100 µM (inactive)
K562
  GI50: > 100 µM (inactive)
UACC-62
  GI50: > 100 µM (inactive)
SK-MEL-2
  GI50: > 100 µM (inactive)
A549
  GI50: > 100 µM (inactive)
SNB-78
  GI50: > 100 µM (inactive)
SF-268
  GI50: > 100 µM (inactive)
MOLT-4
  GI50: > 100 µM (inactive)
UO-31
  GI50: > 100 µM (inactive)
786-0
  GI50: > 100 µM (inactive)
SN12C
  GI50: > 100 µM (inactive)
SF-539
  GI50: > 100 µM (inactive)
DMS-114
  GI50: 77.1 µM (inactive)
HOP-62
  GI50: > 100 µM (inactive)
HCT-116
  GI50: > 100 µM (inactive)
CCRF-CEM
  GI50: 33 µM (inactive)
OVCAR-8
  GI50: > 100 µM (inactive)
EKVX
  GI50: > 100 µM (inactive)
KM12
  GI50: > 100 µM (inactive)
SR
  GI50: 59.4 µM (inactive)

— ChEMBL document CHEMBL1201862, “PubChem BioAssay data set” (2004)
